The test system of assay [1] is SEM B-ALL cell line. Nature of the assay: Cytotoxicity assay, SEM. In kind it is cell-based. As to conditions: Homo sapiens, 96 h, four days in culture, Alamar blue assay or automated microscopy, ± SD, three experiments. Put shortly: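 Percent survival versus DMSO control after 4-day inhibitor exposure (1×10^−6 to 10 µM final), based on Alamar blue absorbance or automated microscopy cell counts.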
In general terms: The colour change of resazurin is a common sign of viable cells or microbes.

Assay [2] has as its system phospho-Aurora-A/B/C. Put plainly: Western blot of Aurora kinase phosphorylation in leukemia cell lines. The class given is cell-based, human. The method, then: (§1) Following desired experimental conditions, cells were harvested and centrifuged at 1200 rpm at 4°C for 5 minutes. After removal of supernatant, cells were washed in cold PBS. Following an additional centrifugation step, supernatant was removed and the pellet was re-suspended in radioimmunoprecipitation assay (RIPA) buffer (50 mM Tris-HCl (pH 8), 150 mM NaCl, 1% NP-40, 0.5% sodium deoxycholate; 0.1% sodium dodecyl sulphate (SDS)) supplemented with 1% phosphatase inhibitor (Sigma-Aldrich), 1% protease inhibitor (Sigma-Aldrich) and 1% sodium orthovanadate (Alfa Aesar, Ward Hill, Massachusetts). Samples were transferred to Eppendorf tubes, left on ice for 10 minutes, vortexed and then centrifuged at 14 000 rpm for 10 minutes.
To begin, the protein content of the lysates was measured using the Bicinchoninic Acid (BCA) Protein Assay Kit (Pierce, Rockford, Illinois), which included a protein standard curve generated with bovine serum albumin. Appropriate volumes of samples and loading buffer (50 mM Tris-HCl (pH 6.8), 2% SDS, 10% glycerol, 1% β-mercaptoethanol, 12.5 mM EDTA, 0.02% bromophenol blue) were mixed, ensuring that equal amounts of protein were loaded (30 µg of protein per well). Samples were then resolved on SDS-PAGE using various percentages of acrylamide gels (8%–12%), depending on the proteins of interest. SDS-PAGE was run in SDS running buffer (25 mM Tris, 192 mM glycine, 0.1% SDS) and then transferred to nitrocellulose membranes in transfer buffer (48 mM Tris, 39 mM glycine, 20% (v/v) methanol) at 100 volts for 2 hours at 4°C. Immunoblots were then blocked in 5% skim milk in tris-buffered saline with 0.1% Tween-20 (TBS-T; 50 mM Tris-HCl, pH 7.5, 150 mM NaCl, 0.1% (v/v) Tween-20 (Sigma-Aldrich)) for 1 to 2 hours. Immunoblots were then incubated with selected primary antibodies diluted in TBS-T with 0.1% gelatin (Bio-Rad, Mississauga, Ontario) and 0.05% sodium azide (Sigma-Aldrich) overnight. Primary antibodies included: Aurora-A (Cell Signalling, Danvers, Massachusetts; 1∶1000), Aurora-B (Cell Signalling, 1∶1000), phospho-Aurora-A/B/C (Cell Signalling, 1∶1000), caspase 7 (Cell Signalling, 1∶1000), PARP (Cell Signalling, 1∶2000) and β-Actin (Sigma-Aldrich, 1∶10000). Following washes with TBT-T 4 times for 8 to 10 minutes, immunoblots were incubated with appropriate secondary antibodies conjugated to horseradish peroxidise (Sigma-Aldrich) diluted in TBS-T plus 5% skim milk at a ratio of 1∶5000 for 2 hours at room temperature. After an additional round of washes in TBS-T, immunoblots were exposed to combined enhanced chemiluminescence (ECL) reagents (Reagent 1: 100 mM Tris-HCl (pH 8.5), 5.4 mM hydrogen peroxide; Reagent 2: 100 mM Tris-HCl (pH 8.5), 2.5 mM luminol, 0.4 mM p-coumaric acid) for 1 minute and developed by exposure to X-ray film (Christie InnoMed, Montreal, Quebec).
Leukemia cells were plated in a 6 well plate (BD Biosciences) at a concentration of 1×10^6 cells per well in a volume of 500 µl of Opti-MEM supplemented with FBS and antibiotics. Next, Silencer Select Negative Control Number 1 siRNA (Invitrogen), Aurora kinase A siRNA (s196, Invitrogen) and Aurora kinase B siRNA (s17611, Invitrogen) were diluted in individual tubes (BD Biosciences) to a final concentration of 30 nM in 500 µl Opti-MEM without supplements. Following, HiPerfect Transfection Reagent (Qiagen, Toronto, Ontario) was added to the diluted siRNA at a ratio of 3∶100 and the samples were left at room temperature for 10 minutes to allow for the formation of transfection complexes. The transfection complexes were then added to the cells at a volume of 500 µl per well and the plates were placed in the incubator for 6 hours. After incubation, 1.4 ml of Opti-MEM plus supplements were added to each well, for a total volume 2.4 ml per well. The cells were returned to the incubator for an additional 48 or 72 hours and then processed for immunoblotting.

Assay [3] has as its system cleavage of PARP and caspase 7. Put plainly: Western blot of apoptotic markers in leukemia cell lines. The class given is cell-based, human. Particulars: 2, 4, 6, 12 and 24 hours, C1, SEM, KOPN8, TIB-202. The method, then: as §1
To begin, the protein content of the lysates was measured using the Bicinchoninic Acid (BCA) Protein Assay Kit (Pierce, Rockford, Illinois), which included a protein standard curve generated with bovine serum albumin. Appropriate volumes of samples and loading buffer (50 mM Tris-HCl (pH 6.8), 2% SDS, 10% glycerol, 1% β-mercaptoethanol, 12.5 mM EDTA, 0.02% bromophenol blue) were mixed, ensuring that equal amounts of protein were loaded (30 µg of protein per well). Samples were then resolved on SDS-PAGE using various percentages of acrylamide gels (8%–12%), depending on the proteins of interest. SDS-PAGE was run in SDS running buffer (25 mM Tris, 192 mM glycine, 0.1% SDS) and then transferred to nitrocellulose membranes in transfer buffer (48 mM Tris, 39 mM glycine, 20% (v/v) methanol) at 100 volts for 2 hours at 4°C. Immunoblots were then blocked in 5% skim milk in tris-buffered saline with 0.1% Tween-20 (TBS-T; 50 mM Tris-HCl, pH 7.5, 150 mM NaCl, 0.1% (v/v) Tween-20 (Sigma-Aldrich)) for 1 to 2 hours. Immunoblots were then incubated with selected primary antibodies diluted in TBS-T with 0.1% gelatin (Bio-Rad, Mississauga, Ontario) and 0.05% sodium azide (Sigma-Aldrich) overnight. […]
For orientation: Immunoblotting shows a protein as a band on a membrane.

Assay [4] has as its system Aurora-A. On the set-up: method as in earlier work. As to conditions: literature values; ref [10],[22],[27],[40],[44]–[64] as listed per inhibitor in Table 1; read-out: Targets (IC50 Value): Aurora-A; cited from earlier work.

As for `CCS(=O)(=O)Nc1ccc2c(c1)/C(=C(/Nc1ccc(CN3CCCCC3)cc1)c1ccccc1)C(=O)N2` [Hesperadin], the IC50 in assay [1] is 1 ± 0.5 nM. Also, the “phosphorylation of Aurora-B, inhibitor alone” value in assay [2] (0.1 µM for 12 hours, SEM and TIB-202, Lanes 3 and 6 of Figure 7) is listed as “promoted dephosphorylation of Aurora-B”. Further, in assay [2] (0.1 µM, 2, 4, 6, 12 and 24 hours, C1, SEM, KOPN8, TIB-202), the “phosphorylation of Aurora-A, time course” value was “remained phosphorylated in all of the cell lines throughout the duration of treatment, with a slight increase in activity at 12 and 24 hours”. In addition, the “phosphorylation of Aurora-B and Aurora-C, time course, C1 and TIB-202” value in assay [2] (0.1 µM, 2, 4, 6, 12 and 24 hours, C1 and TIB-202) was “Dephosphorylation of Aurora-B and Aurora-C was initiated at 2 hours in C1 and TIB-202 and maintained for the duration of the treatment”. Besides, the “phosphorylation of Aurora-B, time course, SEM and KOPN8” value in assay [2] (0.1 µM, 2, 4, 6, 12 and 24 hours, SEM and KOPN8) was “dephosphorylation of Aurora-B was initiated at 2 hours in SEM and KOPN8 and maintained until 24 hours”. Moreover, in assay [2] (Aurora-A siRNA 60 hours, then 0.1 µM for 12 hours, SEM and TIB-202, Lane 5), the “phosphorylation of Aurora-B and Aurora-C, inhibitor after Aurora-A siRNA” value was “decrease in phosphorylation of Aurora-B and Aurora-C compared to silencing of Aurora-A alone”. In assay [3] (0.1 µM), the “cleavage of PARP, time course” value was “cleavage of PARP in all four cell lines starting at 12 hours”; the “cleavage of caspase 7, time course” value is “cleavage of caspase 7 beginning at 4 hours for C1 and at 12 hours for the remaining cell lines”.

In the case of `CCN1CCN(C(=O)Cc2ccc(Nc3ncc(F)c(Nc4ccc(C(=O)Nc5ccccc5Cl)cc4)n3)cc2)CC1` [Aurora A Inhibitor I], the “phosphorylation of Aurora kinases, inhibitor alone, TIB-202” value in assay [2] (1 µM for 12 h, TIB-202, Lanes 3 and 6 of Figure 8) is “promoted dephosphorylation of Aurora-A and increased phosphorylation of Aurora-B and Aurora-C”. Further, the “phosphorylation of Aurora-A, time course, C1” value in assay [2] (1 µM, 2, 4, 6, 12 and 24 hours, C1) is “slight increase in phosphorylation of Aurora-A at 12 and 24 hours”. Moreover, the “phosphorylation of Aurora-B and Aurora-C, time course” value in assay [2] (1 µM, 2, 4, 6, 12 and 24 hours, C1, SEM, KOPN8, TIB-202) was “gradual increase in phosphorylation of Aurora-B and Aurora-C compared to vehicle control starting at 2 hours for SEM and KOPN8, 4 hours for TIB-202 and 6 hours for C1”. Also, in assay [2] (1 µM, 2, 4, 6, 12 and 24 hours, SEM, KOPN8, TIB-202), the “phosphorylation of Aurora-A, time course, SEM, KOPN8, TIB-202” value was “initial decrease, followed by a subsequent increase in phosphorylation of Aurora-A was apparent, starting at 6 hours for SEM and at 4 hours for KOPN8 and TIB-202”. Also, the “phosphorylation of Aurora kinases, inhibitor after Aurora-B siRNA” value in assay [2] (Aurora-B siRNA 60 hours, then 1 µM for 12 h, SEM and TIB-202, Lane 5) is on record as “decrease in phosphorylation of all three isoforms compared to treatment with Aurora A Inhibitor I alone or Aurora-B siRNA alone”. The “cleavage of caspase 7, time course” value in assay [3] (1 µM) was “cleavage of caspase 7 beginning at 4 hours for TIB-202 and at 12 hours for the remaining cell lines”. In addition, the IC50 in assay [4] is 3 nM.

Take `O=C(Nc1c[nH]nc1-c1nc2ccc(CN3CCOCC3)cc2[nH]1)NC1CC1` [AT9283]: inhibition in assay [1] was half-maximal at 40 ± 20 nM (IC50).

One may read the IC50 as the concentration that inhibits the measured activity by half.

These data come from paper PMC4105567, “Aurora Kinases as Druggable Targets in Pediatric Leukemia: Heterogeneity in Target Modulation Activities and Cytotoxicity by Diverse Novel Therapeutic Agents” (PLoS ONE, 2014).
